In the supplement of paper PMC11061612:

Key:
Assay in all cases: combination Emax (second highest fraction inhibited in the dose matrix, 72 h); higher = more inhibition; extreme values may be limits of the assay
A704 (Kidney Carcinoma) = tested on: A704 (Kidney Carcinoma)
In short: (§1)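 Bliss excess equals the observed combination effect minus the expected value EA + EB − EA·EB, where EA and EB are the effects of each agent alone. Combination Emax is the second-highest inhibition within the matrix. Inhibition was scaled from CellTiter-Glo 2.0 luminescence, with 0 set by vehicle wells and 1 by blank wells, after 72 hours of two-drug dosing of cells plated in 1536-well plates.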

[1] = tested on: ASH-3 (Thyroid Gland Carcinoma)
In short: as §1

BT-20 (Breast Carcinoma) = tested on: BT-20 (Breast Carcinoma)
In short: as §1

[2] = tested on: EBC-1 (Squamous Cell Lung Carcinoma)
In short: as §1

EW-18 (Ewing's Sarcoma) = tested on: EW-18 (Ewing's Sarcoma)
In short: as §1

GOTO (Neuroblastoma) = tested on: GOTO (Neuroblastoma)
In short: as §1

[3] = tested on: HC-1 (Other Blood Carcinomas)
In short: as §1

[4] = tested on: HuP-T3 (Pancreatic Carcinoma)
In short: as §1

[5] = tested on: JHH-7 (Hepatocellular Carcinoma)
In short: as §1

[6] = tested on: KINGS-1 (Low Grade Glioma)
In short: as §1

[7] = tested on: KLE (Endometrial Carcinoma)
In short: as §1

[8] = tested on: NCI-H2347 (Lung Adenocarcinoma)
In short: as §1

[9] = tested on: NCI-H2405 (Lung Adenocarcinoma)
In short: as §1

[10] = tested on: NCI-H322M (Lung Adenocarcinoma)
In short: as §1

[11] = tested on: OVISE (Ovarian Carcinoma)
In short: as §1

[12] = tested on: PFSK-1 (Other Solid Carcinomas)
In short: as §1

[13] = tested on: SCC-3 (B-Cell Non-Hodgkin's Lymphoma)
In short: as §1

[14] = tested on: SCC-9 (Oral Cavity Carcinoma)
In short: as §1

U-87-MG (Glioblastoma) = tested on: U-87-MG (Glioblastoma)
In short: as §1

[15] = tested on: VMRC-LCD (Lung Adenocarcinoma)
In short: as §1

SMILES | combination Emax (A704 (Kidney Carcinoma)) | combination Emax [1] | combination Emax (BT-20 (Breast Carcinoma)) | combination Emax [2] | combination Emax (EW-18 (Ewing's Sarcoma)) | combination Emax (GOTO (Neuroblastoma)) | combination Emax [3] | combination Emax [4] | combination Emax [5] | combination Emax [6] | combination Emax [7] | combination Emax [8] | combination Emax [9] | combination Emax [10] | combination Emax [11] | combination Emax [12] | combination Emax [13] | combination Emax [14] | combination Emax (U-87-MG (Glioblastoma)) | combination Emax [15]
Cc1c2c(nn1C)CSCc1cc(n(C)n1)CSc1cc(c3ccccc3c1)OCCCc1c(C(=O)O)n(C)c3c-2c(Cl)ccc13 [AZD5991] + CN(C)CCCOc1ccc(-c2ccc3ncc4c(c3c2)n(C2CCOCC2)c(=O)n4C)cn1 [AZD0156] (first compound max 1 µM, 7x7, partner max 1 µM) | 0.24 | 0.344 | 0.636 | 0.251 | 0.94 | 0.757 | 0.37 | 0.213 | 0.14 | 0.278 | 0.262 | 0.239 | 0.228 | 0.279 | 0.283 | 0.993 | 0.396 | 0.269 | 0.253 | 0.2
CC(=O)c1c(C)c2cnc(Nc3ccc(N4CCNCC4)cn3)nc2n(C2CCCC2)c1=O [Palbociclib] + Cn1cnc2c(F)c(Nc3ccc(Br)cc3Cl)c(C(=O)NOCCO)cc21 [Selumetinib] (first compound max 10 µM, 7x7, partner max 10 µM) | 0.705 | 0.403 | 0.361 | 0.944 | 0.58 | 0.819 | 0.59 | 0.385 | 0.323 | 0.232 | 0.31 | 0.38 | 0.428 | 0.665 | 0.271 | 0.138 | 0.503 | 0.397 | 0.326 | 0.123
CN(CCO)CC[C@H](CSc1ccccc1)Nc1ccc(S(=O)(=O)NC(=O)c2ccc(N3CCC([C@@H](O)c4ccccc4-c4ccc(Cl)cc4)CC3)cc2)cc1S(=O)(=O)C(F)(F)F [AZD4320] + Cn1cnc2c(F)c(Nc3ccc(Br)cc3Cl)c(C(=O)NOCCO)cc21 [Selumetinib] (first compound max 1 µM, 7x7, partner max 3 µM) | 0.642 | 0.728 | 0.746 | 0.991 | 0.881 | 0.85 | 0.972 | 0.471 | 0.276 | 0.481 | 0.423 | 0.68 | 0.572 | 0.642 | 0.786 | 0.419 | 0.546 | 0.67 | 0.278 | 0.226
CN(CCO)CC[C@H](CSc1ccccc1)Nc1ccc(S(=O)(=O)NC(=O)c2ccc(N3CCC([C@@H](O)c4ccccc4-c4ccc(Cl)cc4)CC3)cc2)cc1S(=O)(=O)C(F)(F)F [AZD4320] + C=CCn1c(=O)c2cnc(Nc3ccc(N4CCN(C)CC4)cc3)nc2n1-c1cccc(C(C)(C)O)n1 [AZD1775] (first compound max 1 µM, partner max 1 µM) | 0.781 | 0.531 | 0.787 | 0.975 | 0.888 | 0.855 | 1 | 0.412 | 0.524 | 0.526 | 0.573 | 0.571 | 0.193 | 0.851 | 0.939 | 0.742 | 0.779 | 0.281 | 0.187 | 0.562
COc1nnc2ccc(N3CCC(c4ccc(OCCN5CCN(C)C(=O)[C@H]5C)cc4)CC3)nn12 [AZD5153] + C=CCn1c(=O)c2cnc(Nc3ccc(N4CCN(C)CC4)cc3)nc2n1-c1cccc(C(C)(C)O)n1 [AZD1775] (first compound max 1 µM, partner max 1 µM) | 0.652 | 0.742 | 0.471 | 0.802 | 0.687 | 0.919 | 0.948 | 0.584 | 0.316 | 0.251 | 0.679 | 0.413 | 0.429 | 0.841 | 0.767 | 0.744 | 0.9 | 0.518 | 0.53 | 0.943
Cn1cnc2c(F)c(Nc3ccc(Br)cc3Cl)c(C(=O)NOCCO)cc21 [Selumetinib] + CC(C)n1c(=O)n(C)c2cnc3cc(F)c(-c4ccc(OCCCN5CCCCC5)nc4)cc3c21 [AZD1390] (first compound max 10 µM, 7x7, partner max 0.3 µM) | 0.246 | 0.304 | 0.252 | 0.934 | 0.28 | 0.283 | 0.456 | 0.368 | 0.262 | 0.232 | 0.178 | 0.308 | 0.364 | 0.527 | 0.184 | 0.244 | 0.369 | 0.379 | 0.215 | 0.15
NC1(C(=O)N[C@@H](CCO)c2ccc(Cl)cc2)CCN(c2ncnc3[nH]ccc23)CC1 [Capivasertib] + COc1nnc2ccc(N3CCC(c4ccc(OCCN5CCN(C)C(=O)[C@H]5C)cc4)CC3)nn12 [AZD5153] (first compound max 10 µM, 7x7, partner max 1 µM) | 0.645 | 0.831 | 0.813 | 0.829 | 0.787 | 0.802 | 0.664 | 0.522 | 0.311 | 0.349 | 0.639 | 0.314 | 0.481 | 0.615 | 0.526 | 0.581 | 0.827 | 0.538 | 0.671 | 0.454
C[C@@H](c1ccc2nccn2c1)n1nnc2ncc(-c3cnn(C)c3)nc21 [Savolitinib] + Cc1c2c(nn1C)CSCc1cc(n(C)n1)CSc1cc(c3ccccc3c1)OCCCc1c(C(=O)O)n(C)c3c-2c(Cl)ccc13 [AZD5991] (first compound max 1 µM, 7x7, partner max 1 µM) | 0.256 | 0.299 | 0.465 | 1 | 0.874 | 0.804 | 0.216 | 0.189 | 0.205 | 0.323 | 0.162 | 0.107 | 0.0962 | 0.086 | 0.148 | 0.93 | 0.279 | 0.185 | 0.288 | 0.154
Cc1c2c(nn1C)CSCc1cc(n(C)n1)CSc1cc(c3ccccc3c1)OCCCc1c(C(=O)O)n(C)c3c-2c(Cl)ccc13 [AZD5991] + C1CN(CCC1(C(=O)N[C@@H](CCO)C2=CC=C(C=C2)Cl)N)C3=NC=NC4=C3C=CN4 [Capivasertib] (first compound max 1 µM, 7x7, partner max 3 µM) | 0.306 | 0.267 | 0.867 | 0.287 | 0.95 | 0.725 | 0.588 | 0.228 | 0.188 | 0.242 | 0.267 | 0.134 | 0.203 | 0.225 | 0.354 | 1 | 0.487 | 0.231 | 0.372 | 0.129
CC1(C)CCC(CN2CCN(c3ccc(C(=O)NS(=O)(=O)c4ccc(NCC5CCOCC5)c([N+](=O)[O-])c4)c(Oc4cnc5[nH]ccc5c4)c3)CC2)=C(c2ccc(Cl)cc2)C1 [Venetoclax] + COc1cc(Nc2ncc3c(n2)-c2ccc(Cl)cc2C(c2c(F)cccc2OC)=NC3)ccc1C(=O)O [Alisertib] (first compound max 1 µM, 7x7, partner max 10 µM) | 0.758 | 0.476 | 0.499 | 0.436 | 0.736 | 0.719 | 0.861 | 0.337 | 0.287 | 0.379 | 0.635 | 0.18 | 0.228 | 0.352 | 0.578 | 0.477 | 0.893 | 0.274 | 0.423 | 0.619
NC1(C(=O)N[C@@H](CCO)c2ccc(Cl)cc2)CCN(c2ncnc3[nH]ccc23)CC1 [Capivasertib] + Cn1cnc2c(F)c(Nc3ccc(Br)cc3Cl)c(C(=O)NOCCO)cc21 [Selumetinib] (first compound max 10 µM, 7x7, partner max 10 µM) | 0.434 | 0.773 | 0.809 | 0.963 | 0.656 | 0.469 | 0.601 | 0.464 | 0.418 | 0.597 | 0.484 | 0.423 | 0.573 | 0.582 | 0.454 | 0.516 | 0.363 | 0.723 | 0.685 | 0.248
Cc1c2c(nn1C)CSCc1cc(n(C)n1)CSc1cc(c3ccccc3c1)OCCCc1c(C(=O)O)n(C)c3c-2c(Cl)ccc13 [AZD5991] + CCN(CCO)CCCOc1ccc2c(Nc3cc(CC(=O)Nc4cccc(F)c4)[nH]n3)ncnc2c1 [AZD2811] (first compound max 1 µM, 7x7, partner max 1 µM) | 0.177 | 0.3 | 0.787 | 0.243 | 0.919 | 0.709 | 0.737 | 0.241 | 0.453 | 0.242 | 0.267 | 0.213 | 0.221 | 0.188 | 0.376 | 0.998 | 0.51 | 0.293 | 0.326 | 0.613
